Consider one substance from patent US8614170B2, “Method for treating fracturing water” (Schlumberger Technology Corporation, priority 2008, dated 2013).

Test [1] relates to sessile sulfate reducing bacteria. The experiment in a line: Efficacy of metabolic inhibitor for sessile sulfate reducing bacteria (NACE standard TMO194-94 test method). The test is classed as cell-based, sulfate reducing bacteria (SRB). The procedure: (§1) Efficacy of metabolic inhibitor for sulfate reducing bacteria was tested. NACE standard TMO194-94 test method was employed for testing the presence of general heterotrophic bacteria (GHB), acid producing bacteria (APB), and sulphate reducing bacteria (SRB) in field mix water samples at 85 deg F. (29.4 deg C.) containing different metabolic inhibitors and microbiocides: 100 ppm active or 200 ppm of calcium nitration solution and 125 ppm active glut or 500 ppm glut solution were used. In a first example, shown in FIG. 1, efficacy of metabolic inhibitor for planktonic sulfate reducing bacteria is tested. In a second example, shown in FIG. 2, efficacy of metabolic inhibitor for sessile sulfate reducing bacteria is tested.

Test [2] has as its system planktonic sulfate reducing bacteria. Nature of the test: Efficacy of metabolic inhibitor for planktonic sulfate reducing bacteria (NACE standard TMO194-94 test method). The test is classed as cell-based. As to conditions: planktonic SRB, field mix water samples at 85 deg F. (29.4 deg C.), FIG. 1. The method, then:
as §1

Turning to “calcium nitration solution [metabolic inhibitor]”, the “impact on sessile versus planktonic population” value in test [1] (maximum effect after 28 days) is reported as “greater impact on the sessile bacteria population than the planktonic population”. Moreover, the “efficacy against sulfate reducing bacteria” value is on record as “kill and/or inhibit the growth” in test [1] (sessile SRB, field mix water samples at 85 deg F. (29.4 deg C.), FIG. 2) and “kill and/or inhibit the growth” in test [2].
